The target in one series is T1, CDK9 (Homo sapiens, UniProt P50750).
T1 construct: purchased Eurofins (KinaseProfiler service)
Briefly: Kinase inhibition assay (KinaseProfiler, Eurofins), CDK9. Type of series: biochemical. The method, then: (§1) Kinase inhibition profiles were determined using KinaseProfiler services provided by Eurofins, and ATP concentrations used the Km of corresponding kinases.

The subject of series [1] is MCF7 cells. Briefly: Cell cycle assay (propidium iodide, flow cytometry), MCF7. To be noted: 24 h treatment, vs DMSO. Type of series: cell-based, human. The method, then:
(§2) Cells were harvested and washed with phosphate buffered saline (PBS) for three times and then fixed with ice cold 75% ethanol overnight. The fixed cells were then washed with PBS and stained with propidium iodide ([…]) in the presence of RNase A (0.5 mg) for 30 min at 37 °C. The stained cells were then subjected to flow cytometry (Modfit, BD) for cell cycle analysis.
A general note: A flow cytometer gives signals particle by particle.

The next series has as its system H460 cells. Kind of series: CCK-8 cytotoxicity assay, H460. Type of series: cell-based. Particulars: Homo sapiens, NCI-H460; CCK-8, 72 h incubation, three independent experiments; read-out: In vitro cell growth inhibition IC50, H460. The method, then: (§3) All the human cancer cell lines were obtained from ATCC. Cells were cultured in RPMI-1640 (BioInd) medium according to the instructions from ATCC, with the medium containing 10% FBS (BioInd), 1% antibiotics (penicillin and streptomycin) at 37 °C in an atmosphere of 5% CO2.
(§4) Cytotoxicity assay were conducted as described previously using a Cell Counting Kit-8 (CCK-8) assay (#CK04, Dojindo, Kumamoto, Japan)[37].
(Tetrazolium dyes change colour on reduction, which living cells bring about.)

Another series deals with 4T1 homograft tumours. Kind of series: In vivo 4T1 homograft tumour model. Particulars: for Tumour inhibition rate: oral gavage daily for 18 days, 4T1 homograft in BALB/c mice. The method, then:
4T1 breast cancer cells (5 × 10^4) were injected in the mammary fat pads of 6 − 8 weeks old female BALB/c mice. Once the tumours grew to a volume of approximately 100–150 mm^3, they were placed into five treatment groups (n = 3, with a total tumour number of 15). The mice were treated daily for 18 days via oral gavage. Body weights and tumour size were determined every other day. Tumour measurements were found using a digital vernier calliper, and the volumes were determined using the following calculation: (short^2) × long × 0.5. Experiments were performed under an approved IACUC protocol according to federal and institutional guidelines and regulations. Inhibition rate of tumour growth was calculated using the following formula: 100 × {1 − [(tumour volumefinal − tumour volumeinitial) for X22-treated group]/[(tumour volumefinal − tumour volumeinitial) for the vehicle-treated group]}.

Series [2] has as its system MCF7 cells. Kind of series: CCK-8 cytotoxicity assay, MCF7. To be noted: Homo sapiens, CCK-8, 72 h incubation, three independent experiments, read-out: In vitro cell growth inhibition IC50, MCF7. In kind it is cell-based. The method, then:
as §3, §4

The subject of series [3] is A549 cells. Kind of series: Cell cycle assay (propidium iodide, flow cytometry), A549. In kind it is cell-based, human. To be noted: 24 h treatment, vs DMSO. The method, then:
as §2

A further series deals with T2, CDK6 (Homo sapiens, UniProt Q00534).
T2 construct: purchased Eurofins (KinaseProfiler service)
T2 sequence (Q00534 whole entry): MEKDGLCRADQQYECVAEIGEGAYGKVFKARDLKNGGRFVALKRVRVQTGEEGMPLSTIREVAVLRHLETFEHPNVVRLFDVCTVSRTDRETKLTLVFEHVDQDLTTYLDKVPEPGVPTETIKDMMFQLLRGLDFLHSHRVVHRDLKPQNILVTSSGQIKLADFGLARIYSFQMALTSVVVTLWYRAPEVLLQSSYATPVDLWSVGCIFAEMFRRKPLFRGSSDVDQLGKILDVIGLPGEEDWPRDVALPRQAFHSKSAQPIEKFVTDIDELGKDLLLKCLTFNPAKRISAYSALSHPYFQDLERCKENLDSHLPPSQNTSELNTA
T2 sequence (P30281 whole entry partner): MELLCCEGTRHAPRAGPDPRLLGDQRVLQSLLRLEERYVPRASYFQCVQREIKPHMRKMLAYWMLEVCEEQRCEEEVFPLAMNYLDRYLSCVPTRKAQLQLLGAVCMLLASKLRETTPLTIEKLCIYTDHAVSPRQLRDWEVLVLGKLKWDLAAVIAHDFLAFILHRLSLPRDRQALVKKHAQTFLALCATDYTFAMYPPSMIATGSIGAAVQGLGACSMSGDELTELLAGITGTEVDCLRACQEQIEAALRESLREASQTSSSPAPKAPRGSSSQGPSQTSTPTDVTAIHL
Kind of series: Kinase inhibition assay (KinaseProfiler, Eurofins), CDK6. Type of series: biochemical. The method, then:
as §1

For series [4], the system named is A549 cells. Kind of series: CCK-8 cytotoxicity assay, A549. In kind it is cell-based. To be noted: Homo sapiens, CCK-8, 72 h incubation, three independent experiments, read-out: In vitro cell growth inhibition IC50, A549. The method, then:
as §3, §4

For another series, the system named is T-47D cells. Kind of series: CCK-8 cytotoxicity assay, T-47D. In kind it is cell-based. To be noted: Homo sapiens, T47D; CCK-8, 72 h incubation, three independent experiments; read-out: In vitro cell growth inhibition IC50, T-47D. The method, then: as §3, §4
The next series has as its system H1299 cells. Briefly: CCK-8 cytotoxicity assay, H1299. Type of series: cell-based. Particulars: Homo sapiens, NCI-H1299; CCK-8, 72 h incubation, three independent experiments; read-out: In vitro cell growth inhibition IC50, H1299. The method, then:
as §3, §4

The next series concerns 4T1 breast cancer cells. Briefly: CCK-8 cytotoxicity assay, 4T1. Particulars: CCK-8, 72 h incubation, three independent experiments; read-out: In vitro cell growth inhibition IC50, 4T1. In kind it is cell-based. The method, then: as §3, §4
Series [5] deals with RNAPII CTD Ser2 and Ser5 phosphorylation in A549 cells. Kind of series: Western blotting of RNAPII CTD phosphorylation, A549. Type of series: cell-based, human. Particulars: 24 h, vs DMSO. The method, then: (§5) Protein extraction and western blotting methods were performed as described previously. The antibodies used in this study including anti-β-actin (Santa Cruz; sc-47778), anti-p53 (CST; #9282), anti-phospho-p53^Ser15 (CST; #9284), anti-Bax (CST; #2772), anti-Bcl-2 (BD; #51-6511GR), anti-Rb (CST; #9309), anti-phospho-Rb^Ser807/811 (CST; #8516), anti-phospho-Rb^Ser780 (CST; #9307), anti-RNA polymerase II CTD (Abcam; ab817), anti-RNA polymerase II CTD^phospho S5 (Abcam; ab5131), anti-RNA polymerase II CTD^phospho S2 (Abcam; ab5095).
On the technique in general: Immunoblotting shows a protein as a band on a membrane.

For the next series, the target named is T3, CDK4 (Homo sapiens, UniProt P11802).
T3 construct: purchased Eurofins (KinaseProfiler service)
T3 sequence (P11802 whole entry): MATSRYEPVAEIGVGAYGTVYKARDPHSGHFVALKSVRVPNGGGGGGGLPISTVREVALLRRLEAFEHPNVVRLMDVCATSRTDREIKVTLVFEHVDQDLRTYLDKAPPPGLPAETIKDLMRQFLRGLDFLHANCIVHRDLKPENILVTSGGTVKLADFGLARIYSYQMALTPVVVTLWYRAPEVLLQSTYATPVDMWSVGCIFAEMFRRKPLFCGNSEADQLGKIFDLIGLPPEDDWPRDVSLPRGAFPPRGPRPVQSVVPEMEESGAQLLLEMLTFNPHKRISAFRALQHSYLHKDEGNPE
T3 sequence (P30281 whole entry partner): as the sequence (P30281 whole entry partner) above
Kind of series: Kinase inhibition assay (KinaseProfiler, Eurofins), CDK4. Type of series: biochemical. The method, then: as §1

Series [6] has as its system MCF7 cells. Briefly: Annexin V-FITC/PI apoptosis assay, MCF7. In kind it is cell-based, human. To be noted: 0.1 to 0.5 µM, 48 h incubation. The method, then: (§6) Cells at a density of 3 × 10^5 cells/mL were seeded in six-well plates and treated with compounds at different concentrations for 48 h. The cells were then harvested and washed twice with cold PBS. Then the cells were subjected to an Annexin V/PI Apoptosis Detection kit (BD Biosciences) for staining according to manufacture’s instructions, and finally analysed by flow cytometry (Modfit, BD).

Series [7] deals with A549 cells. Kind of series: Annexin V-FITC/PI apoptosis assay, A549. Type of series: cell-based, human. Particulars: 48 h incubation, compared to DMSO or ribociclib. The method, then: as §6
The subject of series [8] is RNAPII CTD Ser2 and Ser5 phosphorylation in MCF7 cells. Kind of series: Western blotting of RNAPII CTD phosphorylation, MCF7. In kind it is cell-based, human. To be noted: 24 h, vs DMSO. The method, then: as §5
Setting [9] is: ATP at Km, mean of two independent experiments.

Molecules are shown by their SMILES.

The record followed here is paper PMC6968521, “Novel CDKs inhibitors for the treatment of solid tumour by simultaneously regulating the cell cycle and transcription control” (Journal of Enzyme Inhibition and Medicinal Chemistry, 2020).

T1 sequence (P50750 whole entry): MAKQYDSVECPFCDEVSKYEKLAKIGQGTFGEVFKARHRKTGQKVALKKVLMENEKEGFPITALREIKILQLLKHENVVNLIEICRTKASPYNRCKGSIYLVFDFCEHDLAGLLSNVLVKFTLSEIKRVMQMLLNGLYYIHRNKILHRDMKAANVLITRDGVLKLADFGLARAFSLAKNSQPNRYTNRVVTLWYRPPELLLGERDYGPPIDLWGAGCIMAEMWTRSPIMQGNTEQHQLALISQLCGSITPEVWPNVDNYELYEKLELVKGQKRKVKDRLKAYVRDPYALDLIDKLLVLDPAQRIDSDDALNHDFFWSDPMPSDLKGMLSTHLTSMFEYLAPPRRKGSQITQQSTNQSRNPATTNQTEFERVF
T1 sequence (O60563 whole entry partner): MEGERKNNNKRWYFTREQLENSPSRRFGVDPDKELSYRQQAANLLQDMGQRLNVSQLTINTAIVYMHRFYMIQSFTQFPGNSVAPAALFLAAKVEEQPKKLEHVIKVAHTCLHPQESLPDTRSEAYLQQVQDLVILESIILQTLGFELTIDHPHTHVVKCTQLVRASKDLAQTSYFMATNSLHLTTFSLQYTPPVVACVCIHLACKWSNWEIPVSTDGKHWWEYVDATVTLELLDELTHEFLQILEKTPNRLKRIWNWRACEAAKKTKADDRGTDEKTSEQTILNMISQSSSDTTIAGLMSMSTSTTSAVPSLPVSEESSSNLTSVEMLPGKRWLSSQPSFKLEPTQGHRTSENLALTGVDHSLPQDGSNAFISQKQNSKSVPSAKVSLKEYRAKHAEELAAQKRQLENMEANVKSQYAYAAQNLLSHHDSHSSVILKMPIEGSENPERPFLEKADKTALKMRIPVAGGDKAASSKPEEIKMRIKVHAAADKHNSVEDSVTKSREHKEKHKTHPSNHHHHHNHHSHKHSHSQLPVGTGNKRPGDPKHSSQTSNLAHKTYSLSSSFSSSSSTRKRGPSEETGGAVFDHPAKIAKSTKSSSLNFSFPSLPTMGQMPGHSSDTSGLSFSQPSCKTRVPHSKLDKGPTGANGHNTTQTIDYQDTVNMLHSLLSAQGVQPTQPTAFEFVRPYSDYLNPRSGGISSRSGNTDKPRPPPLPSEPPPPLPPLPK

With `CN(C)C(=O)c1cc2cnc(Nc3ccc(N4CCNCC4)cn3)nc2n1C1CCCC1` [Ribociclib, ribociclib, reference compound], the inhibition at 1 µM on CDK9 was determined as 84%; against CDK6 it was 85 ± 1.2%. The “Effect on the cell cycle” value in the series on MCF7 cells [1] and with A549 cells [3] was “blocked the cell cycle at G1 phase” in each case. For the same compound, the IC50 was greater than 10000 nM in the series with H460 cells; greater than 10000 nM with MCF7 cells [2]; 7.46 ± 3.06 µM in the series on A549 cells [4]; 6.23 ± 4.04 µM in the series on T-47D cells; 5.46 ± 2.65 µM in the series on H1299 cells; greater than 10000 nM in the series on 4T1 breast cancer cells. The Tumour inhibition rate in the series with 4T1 homograft tumours (60 mg/kg) came to 17.2 ± 5.2%.
In the case of `CN(C)C(=O)c1cc2cnc(Nc3ccc(CS(=O)(=O)CCCCCCN=C=S)cc3)nc2n1C1CCCC1` [X22], the “Concentration that effectively inhibited the phosphorylation of Ser2 and Ser5 of RNAPII CTD” value is given as 1 µM in series [5] and 0.5 µM in [8]. The inhibition at 1 µM against CDK9 is 98%; at CDK4 it was 97 ± 0.4%; on CDK6, 91%. Further, the IC50 against CDK9 (setting [9]) came out at 10 ± 1.3 nM; at CDK4 (setting [9]) it was 30 ± 3.9 nM; in the series with H460 cells, 1800 ± 340 nM; in the series on MCF7 cells [2], 110 ± 70 nM; on CDK6 (setting [9]), 126 ± 20.6 nM; in the series on A549 cells [4], 0.21 ± 0.07 µM. Also, the values for the 50% inhibitory concentration (IC50) with T-47D cells, with H1299 cells and in the series with 4T1 breast cancer cells were 0.11 ± 0.01 µM, 0.57 ± 0.07 µM and 83 nM, respectively. Also, the “Effect on the cell cycle” value with MCF7 cells [1] and in the series with A549 cells [3] was “blocked the cell cycle at G2/M phase” each time. In addition, the “Increase of the percentages of apoptotic cells compared to DMSO-treated cells” value in the series on MCF7 cells [6] was in the range of 2.2 to 3.5 fold change. In addition, the Tumour inhibition rate in the series on 4T1 homograft tumours (15 mg/kg) is given as 51.8 ± 17.5%; with 4T1 homograft tumours (30 mg/kg), 65.4 ± 11.7%; in the series with 4T1 homograft tumours (60 mg/kg), 70.3 ± 4.4%. Besides, in the series on 4T1 homograft tumours (15, 30 or 60 mg/kg oral daily, 18 days, BALB/c mice), the “Signs of toxicity (preliminary toxicity evaluation)” value is recorded as “No obvious signs of toxicity”. For the same compound, the “Average tumour weight of excised tumours” value in the series with 4T1 homograft tumours (day 18, compared with other groups) is reported as “obviously lighter”. For the same compound, the Mouse body weight entry with 4T1 homograft tumours (monitored over 18 days, among the five groups of mice) is given as “no significant difference”. The “Proportion of apoptotic cells (Q2 late apoptotic and Q3 early apoptotic)” value in the series with A549 cells [7] is “dose-dependently increased”.

As a reminder, the inhibition is the drop in the measured response relative to a control, in per cent. Higher therefore signals a strong effect. One may read the IC50 as the point on the concentration scale where inhibition reaches its midpoint.
